Laboratory results taken from article PMC10146491, “Meroterpenoids from Gongolaria abies-marina against Kinetoplastids: In Vitro Activity and Programmed Cell Death Study” (Pharmaceuticals, 2023).

Key:
[1] = test system: L. amazonensis promastigotes; assay: Transmission electron microscopy, ultrastructural effects; format: cell-based, Leishmania amazonensis; details: IC90, 24 h
Experimental: (§1) The analysis of the ultrastructural and morphological damage caused by the compounds in the parasites was performed in collaboration with the Facultad de Estudios Superiores Iztacala (FESI), Medicina, UNAM (Mexico). These assays were performed after incubation of the promastigotes of L. amazonensis and epimastigotes of T. cruzi at the IC90 levels of the pure compounds over 24 h. TEM images were obtained using the conventional microscopy technique as previously described by Castelan-Ramirez et al. in a JEOL JEM-1011 transmission electron microscope (JEOL Ltd., Tokyo, Japan).

[2] = Cytotoxicity assay (Alamar Blue); format: cell-based; details: mouse, J774A.1 murine macrophage cell line, J774A.1, 24 h, read-out: Cytotoxicity CC50, murine macrophages
Experimental: (§2) To carry out the experiments, promastigotes of Leishmania amazonensis (MHOM/BR/77/LTB0016) and L. donovani (MHOM/IN/90/GE1F8R) and epimastigotes of Trypanosoma cruzi (Y strain) were employed. Leishmania species were cultured in Schneider’s medium (Sigma-Aldrich, Madrid, Spain), supplemented with 10% fetal bovine serum (VWR, Biowest, Nuaillé, France) and incubated at 26 °C. RPMI 1640 medium (Gibco, Thermo Fisher, Madrid, Spain) with or without phenol red was also used to culture the parasites at the same temperature. Epimastigotes of T. cruzi were cultured in liver infusion tryptose (LIT) medium supplemented with 10% fetal bovine serum at 26 °C. A cytotoxicity assay was performed using a murine macrophage cell line J774A.1 (ATCC TIB-67), which was maintained in Dulbecco’s modified Eagle’s medium (Gibco, Thermo Fisher, Madrid, Spain) supplemented with 10% of fetal bovine serum at 37 °C in a 5% CO2 atmosphere.
In a sterile 96-well plate, murine macrophages of the cell line J774A.1 were placed to reach an amount of 10^5 cells per well using RPMI 1640 medium without phenol red. After murine macrophage attachment, 50 µL serial dilutions of the isolated compounds were added in each well until reaching a final volume of 100 µL. Next, 10% of Alamar Blue® was placed into each well and the plate was incubated for 24 h at 37 °C with a 5% CO2 atmosphere. Finally, the plates were analyzed using an EnSpire® Multimode Plate Reader (PerkinElmer, Madrid, Spain), as described in the previous section, and the 50% cytotoxic concentration (CC50) values were calculated.
(§3) The 50% inhibitory concentration (IC50) and 50% cytotoxic concentration (CC50) values were obtained using Sigma Plot 12.0 statistical analysis software (Systat Software) and calculated using a non-linear regression analysis with 95% confidence limits. Leishmanicidal and trypanocidal activity assays, as well as cytotoxicity assays, were performed three times on different days, and the results were expressed as means ± standard deviations. The analysis of variance was determined using a one-way ANOVA using the GraphPad.PRISM® 9.0 software program (GraphPad Software, San Diego, CA, USA). Differences at p < 0.05 were considered statistically significant.

[3] = test system: epimastigotes of Trypanosoma cruzi; assay: Trypanocidal activity assay (Alamar Blue), epimastigotes; format: cell-based; details: for Selectivity index (CC50/IC50), T. cruzi: CC50 in murine macrophages; for IC50: Trypanosoma cruzi, 72 h, Alamar Blue, read-out: Antikinetoplastid activity IC50, T. cruzi
Experimental: as §2
(§4) With the objective of determining the antiparasitic activity of the compounds isolated from G. abies-marina, leishmanicidal activity assays were performed against promastigote stages of L. amazonensis and L. donovani, as well as a trypanocidal activity assay performed against epimastigote stages of T. cruzi. In both parasites, a colorimetric assay was used based on the Alamar Blue reagent (Life Technologies, Madrid, Spain) as previously described by Bethencourt-Estrella et al. (2021).
(§5) In a sterile 96 well-plate, serial dilutions of the extracts, fractions or compounds isolated from G. abies-marina were performed in RPMI 1640 medium without phenol red (in the case of Leishmania spp.) or in LIT (in the case of T. cruzi) with a final volume of 100 µL. Parasites were added to wells to reach a concentration of 5 × 10^5 (Leishmania spp.) or 2.5 × 10^5 (T. cruzi) until a final volume of 200 µL/well. Next, 10% of Alamar Blue® was placed into each well and the plate was incubated for 72 h at 26 °C. Finally, the fluorescence of each well was measured using an EnSpire® Multimode Plate Reader (Perkin Elmer, Madrid, Spain) (544 nm excitation, 590 nm emission) and the concentration that inhibits 50% of the parasite population (IC50) was calculated using a non-linear regression analysis with 95% confidence limits. Miltefosine and benznidazol were used as reference drugs. To analyze the data and calculate the IC50, SigmaPlot 12.0 statistical analysis software (Systat Software Inc, Palo Alto, CA, USA) was used.
as §3

[4] = test system: L. amazonensis promastigotes; assay: ATP level analysis (Cell Titer-Glo); format: cell-based, Leishmania amazonensis; details: IC90 of compound, 24 h
Experimental: To study the mechanism of cell death induced in parasites by compounds isolated from Gongolaria abies-marina, a common step was carried out to perform the following five experiments. The promastigotes of Leishmania spp. and epimastigotes of T. cruzi were incubated at the IC90 levels of the compounds (previously calculated) for 24 h at 26 °C. After incubation, the parasites were centrifuged at 3000 rpm for 10 min at 4 °C. The pellets were resuspended following the manufacturer’s instructions for each kit. After the incubation of promastigotes and epimastigotes of the parasites with the IC90 of the compounds, the changes in ATP levels were measured using a Cell Titer-Glo® Luminescent Cell Viability Assay (Promega, WI, USA). The assay was carried out in a white 96-well plate following the manufacturer’s instructions, as previously described by Cartuche et al. (2020). The luminescence was measured using an EnSpire® Multimode Plate Reader (PerkinElmer, Madrid, Spain).

[5] = test system: promastigotes of L. donovani; assay: Leishmanicidal activity assay (Alamar Blue), promastigotes; format: cell-based, Leishmania donovani; details: for Selectivity index (CC50/IC50), L. donovani: CC50 in murine macrophages; for IC50: Leishmania donovani, 72 h, Alamar Blue, read-out: Antikinetoplastid activity IC50, L. donovani
Experimental: as §2, §4, §5, §3

[6] = test system: T. cruzi epimastigotes; assay: Transmission electron microscopy, ultrastructural effects; format: cell-based, Trypanosoma cruzi; details: IC90, 24 h
Experimental: as §1

[7] = test system: T. cruzi epimastigotes; assay: Mitochondrial membrane potential (JC-1 assay); format: cell-based, Trypanosoma cruzi; details: IC90, 24 h
Experimental: To study the mechanism of cell death induced in parasites by compounds isolated from Gongolaria abies-marina, a common step was carried out to perform the following five experiments. The promastigotes of Leishmania spp. and epimastigotes of T. cruzi were incubated at the IC90 levels of the compounds (previously calculated) for 24 h at 26 °C. After incubation, the parasites were centrifuged at 3000 rpm for 10 min at 4 °C. The pellets were resuspended following the manufacturer’s instructions for each kit. A JC-1 Mitochondrial Membrane Potential Assay Kit® (Cayman Chemical, Ann Arbor, MI, USA) was used to analyze variations in the mitochondrial membrane potential of the parasites after incubation at the IC90 levels of the compounds. After centrifugation, the parasites were resuspended in the same buffer and transferred to a black 96-well plate. JC-1 was added following the manufacturer’s instructions as also described by López-Arencibia et al. (2020). Green and red fluorescence was measured using an EnSpire® Multimode Plate Reader (PerkinElmer, Madrid, Spain).

[8] = test system: promastigotes of L. amazonensis; assay: Leishmanicidal activity assay (Alamar Blue), promastigotes; format: cell-based, Leishmania amazonensis; details: for Selectivity index (CC50/IC50), L. amazonensis: CC50 in murine macrophages; for IC50: Leishmania amazonensis, 72 h, Alamar Blue, read-out: Antikinetoplastid activity IC50, L. amazonensis
Experimental: as §2, §4, §5, §3

[9] = test system: intracellular amastigotes of L. amazonensis; assay: In vitro effect against amastigote stage in infected macrophages; format: cell-based, Leishmania amazonensis; details: for Selectivity index (CC50/IC50), amastigotes of L. amazonensis: CC50 in murine macrophages; for IC50: Leishmania amazonensis, J774.A1, intracellular amastigotes in J774A.1 macrophages, 24 h treatment
Experimental: To determine the in vitro effect against the amastigote stage of L. amazonensis, murine macrophages were infected. In a sterile 96 well-plate, macrophages of the J774A.1 cell line were placed in RPMI 1640 to reach 10^5 macrophages per well. This plate was incubated at 37 °C in a 5% CO2 atmosphere. After one hour of incubation, 100 µL of stationary-phase promastigotes of 7-day-old culture was added in a 10:1 ratio (10^6 parasites per well) and the plates were re-incubated at 37 °C for 24 h to achieve maximum infection. Then, the wells were washed with fresh medium to remove non-phagocytosed promastigotes. The infected macrophages were treated with the compounds isolated for 24 h. Then, the medium was removed carefully to be replaced by 30 μL of 0.05% SDS and the plate was shaken for 30 s. After broke macrophages, 170 μL of Schneider’s medium was added to each well to give a final volume of 200 μL and 20 μL of Alamar Blue® was added to the plate being incubated at 26 °C for 72 h, as described by López-Arencibia et al. (2017). After 72 h of incubation, the plates were analyzed using the same protocol for the promastigote test.

[10] = listed as 6Z-1′-methoxyamentadione
[11] = listed as 6Z-1′-methoxyamentadione (3)

| Structure (SMILES) | CC50 at 24 h [2] [µM] | Selectivity index (CC50/IC50), T. cruzi [3] | IC50 [3] [µM] | ATP levels relative to negative control [4] | Selectivity index (CC50/IC50), L. amazonensis [8] | IC50 [8] [µM] | Selectivity index (CC50/IC50), amastigotes of L. amazonensis [9] | IC50 [9] [µM] | Selectivity index (CC50/IC50), L. donovani [5] | IC50 [5] [µM] | further results |
| --- | --- | --- | --- | --- | --- | --- | --- | --- | --- | --- | --- |
| COc1c(C)cc(O)cc1C/C=C(\C)CC(=O)C/C(C)=C/CC[C@@H](C)C(=O)/C=C/C(C)(C)O [Gongolarone B (2), gongolarone B] | 24.4 ± 3.98 | 8.36 | 2.92 ± 0.25 | decreased | 3.79 | 6.45 ± 0.44 | 1.50 | 16.2 ± 1.9 | – | – | Ultrastructural and morphological alterations (TEM) [1]: mitochondrial expansion (M), chromatin condensation in the nucleus (*), intense vacuolization (V), the formation of some autophagy vacuoles; Activity against L. donovani (in words) [5]: lost its activity; Ultrastructural and morphological alterations (TEM) ([6]; listed as gongolarone B): morphological mitochondrial (M) and kinetoplast (K) alterations, chromatin condensation in the nucleus (*), intense vacuolization (V) and the formation of some autophagy vacuoles; Ultrastructural and morphological alterations (TEM) ([6]; listed as gongolarone B (2)): Morphological alterations of the mitochondria and kinetoplast; Mitochondrial membrane potential changes (JC-1) [7]: greatest decrease |
| O=C(Cn1ccnc1[N+](=O)[O-])NCc1ccccc1 [Benznidazole, benznidazole, reference compound] | – | 57.51 | 6.95 ± 0.5 | – | – | – | – | – | – | – | – |
| CCCCCCCCCCCCCCCCOP(=O)([O-])OCC[N+](C)(C)C [Miltefosine, miltefosine, reference compound] | 72.2 ± 1.25 | – | – | – | 11.10 | 6.48 ± 0.1 | 23.16 | 3.12 ± 0.12 | 21.80 | 3.31 ± 0.11 | – |
| COc1c(C)cc(O)cc1C/C=C(\C)CC(=O)/C=C(/C)CCC[C@@H](C)C(=O)/C=C/C(C)(C)O [6Z-1′-Methoxyamentadione (3), 6Z-1′-methoxyamentadione] | 26.8 ± 4.06 | 8.19 | 3.26 ± 0.11 | greatest effect | 5.49 | ~4.88 | 1.66 | 16.2 ± 2.61 | 0.27 | 97.9 ± 5.32 | Ultrastructural and morphological alterations (TEM) [1, 10]: mitochondrial expansion (M), chromatin condensation in the nucleus (*), intense vacuolization (V), the formation of some autophagy vacuoles; Ultrastructural and morphological alterations (TEM) [1, 11]: alteration of the flagellar pocket; Ultrastructural and morphological alterations (TEM) [6, 10]: morphological mitochondrial (M) and kinetoplast (K) alterations, chromatin condensation in the nucleus (*), intense vacuolization (V) and the formation of some autophagy vacuoles; Ultrastructural and morphological alterations (TEM) [6, 11]: Morphological alterations of the mitochondria and kinetoplast |
| COc1c(C)cc(O)cc1C/C=C(\C)CC(=O)/C=C(\C)CCC[C@@H](C)C(=O)/C=C/C(C)(C)O [1′-Methoxyamentadione (4), 1′-methoxyamentadione] | 26.4 ± 2.27 | 5.36 | 4.93 ± 0.55 | – | 5.41 | ~4.88 | 0.96 | 27.6 ± 1.68 | 0.21 | 126.5 ± 1.15 | Ultrastructural and morphological alterations (TEM) ([1]; listed as 1′-methoxyamentadione): mitochondrial expansion (M), chromatin condensation in the nucleus (*), intense vacuolization (V), the formation of some autophagy vacuoles; Ultrastructural and morphological alterations (TEM) ([1]; listed as 1′-methoxyamentadione (4)): alteration of the flagellar pocket; Ultrastructural and morphological alterations (TEM) ([1]; listed as 4): showed two nuclei; Ultrastructural and morphological alterations (TEM) [6]: morphological mitochondrial (M) and kinetoplast (K) alterations, chromatin condensation in the nucleus (*), intense vacuolization (V) and the formation of some autophagy vacuoles |
